Laboratory results: patent publication US9243068B2, “Combination of SEMA-4D inhibitors and immunomodulators to inhibit tumors and metastases” (Vaccinex, Inc., priority 2013, dated 2016)

Tested on: Colon26 tumor cells
Assay: Colon26 tumor growth, combination with cyclophosphamide (Example 8)
Format: in vivo
Conditions: Colon26 in Balb/c mice; anti-SEMA4D 50 mg/kg IP weekly; cyclophosphamide 50 mg/kg IP days 12 and 20
Procedure: Experimental Design. 5×10^5 Colon26 tumor cells were implanted subcutaneously into the flank of female Balb/c mice. […] There were 20 mice per group. Tumors were measured with calipers 3×/week starting 5 days post implant. Animals were sacrificed when tumor volume reached 1000 mm^3.
Tumor growth was measured by calipers and measurements were used to calculate tumor volume using the formula (w^2×I)/2, where w=width, smaller measurement, and l=length, in mm, of the tumor.
Regression is the lack of palpable tumor, defined by a tumor measuring <50 mm^3 for at least two consecutive measurements.

In the case of `O=P1(N(CCCl)CCCl)NCCCO1` (stereo not shown) [cyclophosphamide], the “Tumor Growth Delay (TGD)” value is reported as 96%.
